Results: ChEMBL document CHEMBL1135981, “Designing analogues of mini atrial natriuretic peptide based on structural analysis by NMR and restrained molecular dynamics” (J Med Chem, 2002)

Test system: CHO
Experiment: Evaluated for Biological activity, 50% effective concentration determined by its ability to produce cGMP
Format: functional, cell-based
Details: Cricetulus griseus

Row | Compound | EC50
1 | CC[C@H](C)[C@@H]1NC(=O)[C@H](CCCN=C(N)N)NC(=O)[C@H](CC(=O)O)NC(=O)[C@H](CCSC)NC(=O)[C@H](CCCN=C(N)N)NC(=O)CNC(=O)[C@@H](C)NC(=O)[C@H](Cc2ccccc2)NC(=O)[C@H](Cc2c[nH]cn2)NC(=O)[C@@H](NC(=O)[C@@H](N)CCSC)CSSC[C@@H](C(=O)N[C@@H](Cc2ccc(O)cc2)C(=O)N[C@@H](CCCN=C(N)N)C(N)=O)NC(=O)[C@H](CO)NC1=O | 0.176 nM
2 | CC[C@H](C)[C@@H]1NC(=O)[C@H](CCCN=C(N)N)NC(=O)[C@H](CC(=O)O)NC(=O)[C@H](CCSC)NC(=O)[C@H](CCCN=C(N)N)NC(=O)[C@@H](C)NC(=O)CNC(=O)[C@H](Cc2ccccc2)NC(=O)[C@H](Cc2c[nH]cn2)NC(=O)[C@@H](NC(=O)[C@@H](N)CCSC)CSSC[C@@H](C(=O)N[C@@H](Cc2ccc(O)cc2)C(=O)N[C@@H](CCCN=C(N)N)C(N)=O)NC(=O)[C@H](CO)NC1=O | 3.76 nM
3 | CC[C@H](C)[C@@H]1NC(=O)[C@H](CCCN=C(N)N)NC(=O)[C@H](CC(=O)O)NC(=O)[C@H](CCSC)NC(=O)[C@H](CCCN=C(N)N)NC(=O)[C@@H](C)NC(=O)[C@@H](C)NC(=O)[C@H](Cc2ccccc2)NC(=O)[C@H](Cc2c[nH]cn2)NC(=O)[C@@H](NC(=O)[C@@H](N)CCSC)CSSC[C@@H](C(=O)N[C@@H](Cc2ccc(O)cc2)C(=O)N[C@@H](CCCN=C(N)N)C(N)=O)NC(=O)[C@H](CO)NC1=O | 1.31 nM
